Assay results taken from patent US20070042046A1, “Methods for the treatment of cancer” (priority 2003, published 2007).

Key:
HeLa cells = assay: Live/Dead cell assay; conditions: 24 hours, chlorambucil 90 μg/ml
Description: Cells with formulated drug were collected at 24 hours after incubation, placed into sterile plastic tubes and centrifuged. The supernatants were aspirated out and the cell pellets were washed gently with copious amount of PBS and centrifuged to remove any excipient. The cell pellet was dislodged gently and incubated with 300 μl of Live/dead cell assay reagent and incubated for 45 minutes on a rocker with gentle shaking (20 shakes per minute). At the end of incubation the cells were spun down, washed twice with PBS, reconstituted with 1 ml of PBS and transferred into a plate to capture the images of Live/Dead cells using fluorescent microscope.
The Live/Dead cell assay was performed on HeLa cell cultures grown on collagen coated plated and treated with various forms of porous silicon (AN^+/SE, loaded/unloaded, pre-formulated/formulated).
The procedure was performed on adherent cells after the floating cells were washed off. […] Therefore, percentage of live and dead cells was calculated from the adherent cells stuck to the bottom of the wells. Each sample was run in triplicate wells and one microscopic field image from each well was captured and the live and dead cells were counted to get an average % of cytotoxicity.

[1] = Animal mortality and survival after intra-tumoural injection in tumour-bearing nude mice; format: in vivo; conditions: for animal mortality rate: intratumoural
Description: The following protocol was adopted: • 1. Culture of human cells and implantation of the tumour cells as solid tumours in nude mice: The carcinoma cell-line was cultured in RPMI and Ham's F-12 media respectively with 10% fetal calf serum in a CO2 incubator and subcultured every two to three days until growing to a number enough for implantation in animals. The cells were then implanted as solid tumors in nude mice]. The cells were collected in HBSS (Hanks balanced salt solution). One hundred microliters of cell suspension in HBSS (5×10^6 cells) was injected subcutaneously into right gluteal region of nude mice (female, 6 to 9 week old nude mice with average body weight of 25 g, housed in pathogen-free conditions) using a 25-gauge needle. • 2. Animals groups: Animals were randomly grouped into control 1 (injected with peanut oil), control 2 (injected with porous silicon without drug), free chlorambucil (drug injected without porous silicon directly into tumour or injected via intraperitoneal route) and chlorambucil impregnated porous silicon groups. Each group included 16 to 20 animals. • 3. Injection of chlorambucil impregnated porous silicon in transplanted tumours: On day 14 after implantation of tumours (diameter of the tumour about lcm), the chlorambucil impregnated formulation was applied to the centre of the tumours. • 4. Tumour volumetrics: The sizes of implanted tumours in nude mice was estimated every 3 days. The largest and smallest diameters were measured by a vernier caliper and tumour volumes estimated according the formula: V=½ ab^2, where a and b are largest and smallest tumour diameters respectively, and V is the tumour volume in cm^3.
The effects of intra-tumoural administered chlorambucil loaded porous silicon on the growth of the tumour was studied and compared with control and systemic therapy groups. The body weight of the animals was estimated by subtracting the tumour volume (cm3) from the total body weight (g) every 3 days. The survival time of each experimental animal was recorded. […]

Question: What does the source list for `O=C(O)CCCc1ccc(N(CCCl)CCCl)cc1` [chlorambucil, 4-[bis(2-chloroethyl)amino}benzenebutanoic acid]?
Answer: dead cell percentage (cytotoxicity) (HeLa cells): ≥ 95%; animal mortality rate ([1]; 720 ug): 50%; animal mortality rate ([1]; 1500 ug (2×LD50)): 90%; LD50 ([1]; nude mice, free drug): 720 µg
